Laboratory results as given in the supplement of paper PMC10307832.

Columns and labels:
Test in all cases: relative viability (nuclei count vs DMSO), 5 days (fraction); higher = more cells survive
Venetoclax + Alpelisib = compound: CC1(C)CCC(CN2CCN(c3ccc(C(=O)NS(=O)(=O)c4ccc(NCC5CCOCC5)c([N+](=O)[O-])c4)c(Oc4cnc5[nH]ccc5c4)c3)CC2)=C(c2ccc(Cl)cc2)C1 [Venetoclax] + Cc1nc(NC(=O)N2CCC[C@H]2C(N)=O)sc1-c1ccnc(C(C)(C)C(F)(F)F)c1 [Alpelisib] (partner 2 µM)
Method in brief: (§1)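 Cells from lung cancer lines were seeded into 1536-well plates and, one day later, dosed by pin tool. Treatments were either a single drug or a fixed dose of an anchor drug with five library-drug doses (not always all listed) in √10 steps. After 5 days, nuclei were stained in a one-step fixation (final 0.05% Triton X-100, 1% formaldehyde, 1 ug/ml Hoechst) and counted on 4× images, and relative viability is the treated-to-vehicle nuclei ratio, as the median of duplicate plates.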

Venetoclax + Olaparib = compound: CC1(C)CCC(CN2CCN(c3ccc(C(=O)NS(=O)(=O)c4ccc(NCC5CCOCC5)c([N+](=O)[O-])c4)c(Oc4cnc5[nH]ccc5c4)c3)CC2)=C(c2ccc(Cl)cc2)C1 [Venetoclax] + O=C(c1cc(Cc2n[nH]c(=O)c3ccccc23)ccc1F)N1CCN(C(=O)C2CC2)CC1 [Olaparib] (partner 8 µM)
Method in brief: as §1

Selumetinib + Bortezomib = compound: Cn1cnc2c(F)c(Nc3ccc(Br)cc3Cl)c(C(=O)NOCCO)cc21 [Selumetinib] + CC(C)C[C@H](NC(=O)[C@H](Cc1ccccc1)NC(=O)c1cnccn1)B(O)O [Bortezomib] (partner 0.002 µM)
Method in brief: as §1

Selumetinib + Linsitinib = compound: Cn1cnc2c(F)c(Nc3ccc(Br)cc3Cl)c(C(=O)NOCCO)cc21 [Selumetinib] + C[C@]1(O)C[C@@H](c2nc(-c3ccc4ccc(-c5ccccc5)nc4c3)c3c(N)nccn32)C1 [Linsitinib] (partner 1 µM)
Method in brief: as §1

Cell Line | relative viability (Venetoclax + Alpelisib; first compound 0.01 µM) | relative viability (Venetoclax + Alpelisib; first compound 0.03162 µM) | relative viability (Venetoclax + Alpelisib; first compound 0.1 µM) | relative viability (Venetoclax + Alpelisib; first compound 0.3162 µM) | relative viability (Venetoclax + Alpelisib; first compound 1 µM) | relative viability (Venetoclax + Olaparib; first compound 0.01 µM) | relative viability (Venetoclax + Olaparib; first compound 0.03162 µM) | relative viability (Venetoclax + Olaparib; first compound 0.3162 µM) | relative viability (Venetoclax + Olaparib; first compound 1 µM) | relative viability (Selumetinib + Bortezomib; first compound 0.02 µM) | relative viability (Selumetinib + Bortezomib; first compound 0.06325 µM) | relative viability (Selumetinib + Bortezomib; first compound 0.2 µM) | relative viability (Selumetinib + Bortezomib; first compound 0.6325 µM) | relative viability (Selumetinib + Linsitinib; first compound 0.02 µM) | relative viability (Selumetinib + Linsitinib; first compound 0.06325 µM) | relative viability (Selumetinib + Linsitinib; first compound 0.2 µM) | relative viability (Selumetinib + Linsitinib; first compound 0.6325 µM) | relative viability (Venetoclax + Olaparib; first compound 0.1 µM)
HARA | 0.728 | 0.822 | 0.787 | 0.891 | 0.787 | 0.803 | 0.993 | 0.814 | 0.822 | 1.03 | 1.07 | 1.01 | 0.861 | 0.916 | 0.837 | 0.84 | 0.334 | 
201T | 0.96 | 1.01 | 1.07 | 0.972 | 1.03 | 0.822 | 0.868 | 0.846 | 0.829 | 1.11 | 1 | 1.01 | 0.994 | 0.987 | 0.978 | 0.949 | 0.932 | 0.811
NCI-H23 | 0.658 | 0.62 | 0.64 | 0.644 | 0.546 | 0.311 | 0.26 | 0.376 | 0.304 | 1.34 | 0.967 | 0.721 | 0.965 | 0.585 | 0.53 | 0.43 | 0.369 | 0.367
IA-LM | 0.614 | 0.726 | 0.892 | 0.61 | 0.604 | 0.795 | 0.819 | 0.795 | 0.67 | 0.742 | 0.497 | 0.304 | 0.257 | 0.406 | 0.296 | 0.295 | 0.254 | 0.7
CAL-12T | 1.25 | 1.08 | 1.01 | 1.43 | 1.25 | 0.675 | 0.715 | 0.709 | 0.634 | 0.768 | 0.935 | 0.849 | 0.772 | 0.821 | 0.762 | 0.663 | 0.588 | 0.732
NCI-H647 | 0.703 | 1.05 |  | 1 | 1.01 | 0.521 | 0.698 | 0.564 | 0.535 | 0.96 | 0.946 | 0.901 | 0.73 | 1.28 | 1.06 | 0.827 | 0.803 | 0.424
NCI-H1915 | 1.03 | 1.05 | 1.02 | 1.01 | 1.06 | 0.275 | 0.288 | 0.272 | 0.231 | 1.07 | 0.877 | 0.747 | 0.617 | 0.768 | 1.02 | 0.926 | 0.539 | 0.264
NCI-H2087 | 1.16 | 1.11 | 0.808 | 1.22 | 0.664 | 0.611 | 0.736 | 0.567 | 0.692 | 0.626 | 0.542 | 0.456 | 0.351 | 0.817 | 0.647 | 0.595 | 0.374 | 0.45
NCI-H2085 | 0.911 | 0.925 | 0.884 | 0.928 | 0.911 | 0.676 | 0.758 | 0.755 | 0.75 | 1 | 0.947 | 0.926 | 0.916 | 0.863 | 0.82 | 0.737 | 0.763 | 0.744
